From ChEMBL document CHEMBL5715945 (Cancer Biol Ther, 2010)
Activity calls are given as the source filed them. No cut-off for these calls is given here.

Key:
[1] = system: 4T1; assay: Upregulation of FAK level in mouse 4T1 cells harbouring mCherry red fluorescent protein at 0.1 to 1 uM incubated for 1 hr by immunoblotting analysis; type: functional, cell-based; conditions: dose 0.1-1 µM
[2] = system: 4T1; assay: Effect on p130Cas phosphorylation at Tyr249 residue in mouse 4T1 cells harbouring mCherry red fluorescent protein at 0.1 to 1 uM incubated for 1 hr by immunoblotting analysis; type: functional, cell-based; conditions: dose 0.1-1 µM
[3] = Metabolic stability in human liver microsomes assessed as half life; type: ADME, Microsome
[4] = system: 4T1; assay: Inhibition of cell migration in mouse 4T1 cells at 1 uM incubated for 22 hrs by wound healing assay; type: functional, cell-based
[5] = system: 4T1; assay: Inhibition of cell adhesion to fibronectin in mouse 4T1 cells at 0.4 uM incubated for 4 hrs by […]; type: functional, cell-based
[6] = system: 4T1; assay: Induction of apoptosis in mouse 4T1 adherent cells at 0.1 to 1 uM incubated for 24 to 48 hrs by PI staining based flow cytometry analysis; type: functional, cell-based; conditions: dose 0.1-1 µM, time 24-48 hrs
[7] = system: 4T1; assay: Induction of cell cycle arrest in mouse 4T1 adherent cells assessed as accumulation at G0/G1 phase at 1 uM measured after 72 hrs by PI staining based flow cytometry analysis (reference value: 76.8%); type: functional
[8] = system: 4T1; assay: Induction of cell cycle arrest in mouse 4T1 adherent cells assessed as accumulation at S phase at 1 uM measured after 72 hrs by PI staining based flow cytometry analysis (reference value: 15.3%); type: functional
[9] = system: 4T1; assay: Induction of cell cycle arrest in mouse 4T1 adherent cells assessed as accumulation at G2/M phase at 1 uM measured after 72 hrs by PI staining based flow cytometry analysis (reference value: 7.9%); type: functional
[10] = system: 4T1; assay: Induction of cell cycle arrest in mouse 4T1 adherent cells assessed as accumulation at G0/G1 phase at 1 uM measured after 72 hrs by PI staining based flow cytometry analysis (reference value: 81.3%); type: functional
[11] = system: 4T1; assay: Induction of cell cycle arrest in mouse 4T1 adherent cells assessed as accumulation at S phase at 1 uM measured after 72 hrs by PI staining based flow cytometry analysis (reference value: 12.5%); type: functional
[12] = system: 4T1; assay: Induction of apoptosis in mouse 4T1 adherent cells assessed as increase in cleaved caspase 3 expression at 0.4 uM incubated for 24 hrs by immunoblotting analysis; type: functional, cell-based
[13] = system: 4T1; assay: Inhibition of colony formation in mouse 4T1 cells assessed as reduction in cell number at 0.4 to 1 uM measured after 4 days by phase contrast microscopy analysis; type: functional, cell-based; conditions: dose 0.4-1 µM, time 4.0 day
[14] = system: 4T1; assay: Induction of apoptosis in mouse 4T1 cells assessed as increase in cell apoptosis at 0.1 to 1 uM measured after 2 days by visual analysis; type: functional; conditions: dose 0.1-1 µM, time 2 day
[15] = system: 4T1; assay: Induction of apoptosis in mouse 4T1 cells assessed as increase in cell shrinkage at 0.4 to 1 uM measured after 2 days by phase contrast microscopy analysis; type: functional, cell-based; conditions: dose 0.4-1 µM, time 2.0 day
[16] = system: 4T1; assay: Antitumor activity against mouse 4T1 cells harbouring mCherry red fluorescent protein implanted in BALB/c mouse assessed as fold reduction in tumor weight at 100 mg/kg, sc bid measured after 5 days; type: functional; conditions: time 5 day
[17] = system: ID8; assay: Antitumor activity against mouse ID8 suspended cells assessed as reduction in cell viability at 0.1 to 1 uM measured after 15 days by trypan blue staining based analysis; type: functional; conditions: dose 0.1-1 µM, time 15.0 day
[18] = system: ID8; assay: Antitumor activity against mouse ID8 cells implanted in C57BL6 mouse assessed as reduction in number of ascites-associated cells at 0.5 mg/ml administered as solution in 5% sucrose measured after 30 days; type: functional, cell-based; conditions: time 30.0 day
[19] = target: ALK tyrosine kinase receptor (Homo sapiens) (UniProt Q9UM73); assay: Inhibition of ALK (unknown origin) at 1 uM relative to control; values are per cent of control
[20] = target: Tyrosine-protein kinase Fyn (Homo sapiens) (UniProt P06241); assay: Inhibition of Fyn (unknown origin) at 1 uM relative to control; values are per cent of control
[21] = target: Proto-oncogene tyrosine-protein kinase receptor Ret (Homo sapiens) (UniProt P07949); assay: Inhibition of Ret (unknown origin) at 1 uM relative to control; values are per cent of control
[22] = target: Serine/threonine-protein kinase Chk1 (Homo sapiens) (UniProt O14757); assay: Inhibition of CHK1 (unknown origin) at 1 uM relative to control; values are per cent of control
[23] = target: Tyrosine-protein kinase JAK2 (Homo sapiens) (UniProt O60674); assay: Inhibition of JAK2 (unknown origin) at 1 uM relative to control; values are per cent of control
[24] = target: Vascular endothelial growth factor receptor 2 (Homo sapiens) (UniProt P35968); assay: Inhibition of KDR (unknown origin) at 0.1 uM relative to control; values are per cent of control
[25] = target: Tyrosine-protein kinase Fyn (Homo sapiens) (UniProt P06241); assay: Inhibition of Fyn (unknown origin) at 0.1 uM relative to control; values are per cent of control
[26] = target: ALK tyrosine kinase receptor (Homo sapiens) (UniProt Q9UM73); assay: Inhibition of ALK (unknown origin) at 0.1 uM relative to control; values are per cent of control
[27] = target: Death-associated protein kinase 1 (Homo sapiens) (UniProt P53355); assay: Inhibition of DAPK1 (unknown origin) at 1 uM relative to control; values are per cent of control
[28] = target: Protein kinase C alpha type (Homo sapiens) (UniProt P17252); assay: Inhibition of PKCa (unknown origin) at 0.1 uM relative to control; values are per cent of control
[29] = target: Tyrosine-protein kinase JAK2 (Homo sapiens) (UniProt O60674); assay: Inhibition of JAK2 (unknown origin) at 0.1 uM relative to control; values are per cent of control
[30] = target: Insulin-like growth factor 1 receptor (Homo sapiens) (UniProt P08069); assay: Inhibition of IGF-1R (unknown origin) at 1 uM relative to control; values are per cent of control
[31] = target: Insulin-like growth factor 1 receptor (Homo sapiens) (UniProt P08069); assay: Inhibition of IGF-1R (unknown origin) at 0.1 uM relative to control; values are per cent of control
[32] = target: Tyrosine-protein kinase ZAP-70 (Homo sapiens) (UniProt P43403); assay: Inhibition of ZAP-70 (unknown origin) at 0.1 uM relative to control; values are per cent of control
[33] = target: Aurora kinase A (Homo sapiens) (UniProt O14965); assay: Inhibition of Aurora-A (unknown origin) at 0.1 uM relative to control; values are per cent of control
Chain of Aurora kinase A (Homo sapiens) (O14965 whole entry): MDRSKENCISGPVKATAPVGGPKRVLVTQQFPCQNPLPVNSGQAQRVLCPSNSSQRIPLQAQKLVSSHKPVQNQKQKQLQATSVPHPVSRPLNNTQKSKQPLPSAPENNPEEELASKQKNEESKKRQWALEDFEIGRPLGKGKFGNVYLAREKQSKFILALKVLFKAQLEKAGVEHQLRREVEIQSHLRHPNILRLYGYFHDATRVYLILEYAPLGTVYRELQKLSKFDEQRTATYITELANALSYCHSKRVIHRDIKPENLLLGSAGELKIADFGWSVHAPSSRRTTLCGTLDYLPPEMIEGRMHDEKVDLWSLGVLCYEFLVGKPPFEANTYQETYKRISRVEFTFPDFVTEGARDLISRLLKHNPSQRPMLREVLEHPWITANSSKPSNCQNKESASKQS

Chain of Tyrosine-protein kinase JAK2 (Homo sapiens) (O60674 whole entry): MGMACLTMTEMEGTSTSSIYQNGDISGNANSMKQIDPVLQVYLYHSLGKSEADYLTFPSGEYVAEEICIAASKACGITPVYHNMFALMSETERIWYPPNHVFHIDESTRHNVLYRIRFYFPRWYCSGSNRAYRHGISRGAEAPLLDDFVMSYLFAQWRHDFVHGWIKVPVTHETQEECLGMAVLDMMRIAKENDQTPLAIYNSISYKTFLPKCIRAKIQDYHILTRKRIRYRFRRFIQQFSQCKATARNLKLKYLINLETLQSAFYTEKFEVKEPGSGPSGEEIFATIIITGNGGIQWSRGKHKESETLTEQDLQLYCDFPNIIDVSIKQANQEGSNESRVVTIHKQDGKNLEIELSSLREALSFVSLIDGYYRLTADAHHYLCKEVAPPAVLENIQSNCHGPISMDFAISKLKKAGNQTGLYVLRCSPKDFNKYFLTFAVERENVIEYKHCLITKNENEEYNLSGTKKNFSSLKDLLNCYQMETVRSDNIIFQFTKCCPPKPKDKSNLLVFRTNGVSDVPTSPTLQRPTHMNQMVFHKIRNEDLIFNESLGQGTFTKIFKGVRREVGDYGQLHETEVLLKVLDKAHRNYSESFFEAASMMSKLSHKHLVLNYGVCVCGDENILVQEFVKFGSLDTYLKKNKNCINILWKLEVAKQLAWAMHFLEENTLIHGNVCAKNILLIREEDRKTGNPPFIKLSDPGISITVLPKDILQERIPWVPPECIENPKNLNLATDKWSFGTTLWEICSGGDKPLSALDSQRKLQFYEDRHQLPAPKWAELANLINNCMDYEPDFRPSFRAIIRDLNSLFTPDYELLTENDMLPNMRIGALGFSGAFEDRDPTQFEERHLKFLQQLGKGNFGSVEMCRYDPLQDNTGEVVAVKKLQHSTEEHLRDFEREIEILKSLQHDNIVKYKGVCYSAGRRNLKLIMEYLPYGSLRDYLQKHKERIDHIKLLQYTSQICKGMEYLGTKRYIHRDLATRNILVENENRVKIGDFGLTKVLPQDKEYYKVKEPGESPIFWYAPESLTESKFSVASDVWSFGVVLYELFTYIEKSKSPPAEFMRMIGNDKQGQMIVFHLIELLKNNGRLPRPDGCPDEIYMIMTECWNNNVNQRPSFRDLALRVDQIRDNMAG
Chain of Tyrosine-protein kinase Fyn (Homo sapiens) (P06241 2-537 limits assumed): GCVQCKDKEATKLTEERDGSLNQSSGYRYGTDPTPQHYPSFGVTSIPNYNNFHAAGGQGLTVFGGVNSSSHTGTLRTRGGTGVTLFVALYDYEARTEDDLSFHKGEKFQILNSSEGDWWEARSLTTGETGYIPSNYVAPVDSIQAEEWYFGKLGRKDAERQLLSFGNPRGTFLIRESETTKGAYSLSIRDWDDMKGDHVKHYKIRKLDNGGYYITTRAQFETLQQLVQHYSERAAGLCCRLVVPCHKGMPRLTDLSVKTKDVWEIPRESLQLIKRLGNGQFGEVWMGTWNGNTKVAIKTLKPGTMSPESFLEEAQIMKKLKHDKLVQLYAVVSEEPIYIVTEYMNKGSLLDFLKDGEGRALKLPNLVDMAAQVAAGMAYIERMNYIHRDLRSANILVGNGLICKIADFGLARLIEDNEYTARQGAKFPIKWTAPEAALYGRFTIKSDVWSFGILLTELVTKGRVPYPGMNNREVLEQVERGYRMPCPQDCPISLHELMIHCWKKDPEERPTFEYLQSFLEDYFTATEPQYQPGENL
Chain of Insulin-like growth factor 1 receptor (Homo sapiens) (P08069 31-736 limits assumed): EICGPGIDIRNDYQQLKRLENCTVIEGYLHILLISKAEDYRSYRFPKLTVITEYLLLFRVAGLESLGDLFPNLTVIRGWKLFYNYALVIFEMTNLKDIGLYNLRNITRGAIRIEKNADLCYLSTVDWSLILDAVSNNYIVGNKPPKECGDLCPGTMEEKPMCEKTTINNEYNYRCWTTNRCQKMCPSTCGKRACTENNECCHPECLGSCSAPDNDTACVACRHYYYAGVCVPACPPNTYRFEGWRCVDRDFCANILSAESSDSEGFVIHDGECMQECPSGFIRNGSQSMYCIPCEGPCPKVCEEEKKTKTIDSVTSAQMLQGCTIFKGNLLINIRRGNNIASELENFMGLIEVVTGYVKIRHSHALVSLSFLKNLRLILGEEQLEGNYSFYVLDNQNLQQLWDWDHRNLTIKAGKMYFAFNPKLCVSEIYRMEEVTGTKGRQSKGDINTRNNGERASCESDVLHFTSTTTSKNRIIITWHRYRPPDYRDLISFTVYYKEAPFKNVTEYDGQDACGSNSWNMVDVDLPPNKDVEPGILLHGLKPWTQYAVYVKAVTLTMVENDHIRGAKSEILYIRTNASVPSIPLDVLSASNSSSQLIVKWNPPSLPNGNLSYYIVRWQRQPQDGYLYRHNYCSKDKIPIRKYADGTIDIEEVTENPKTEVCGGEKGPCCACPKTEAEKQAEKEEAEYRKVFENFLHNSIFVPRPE
Chain of Insulin-like growth factor 1 receptor (Homo sapiens) (P08069 741-1367 limits assumed): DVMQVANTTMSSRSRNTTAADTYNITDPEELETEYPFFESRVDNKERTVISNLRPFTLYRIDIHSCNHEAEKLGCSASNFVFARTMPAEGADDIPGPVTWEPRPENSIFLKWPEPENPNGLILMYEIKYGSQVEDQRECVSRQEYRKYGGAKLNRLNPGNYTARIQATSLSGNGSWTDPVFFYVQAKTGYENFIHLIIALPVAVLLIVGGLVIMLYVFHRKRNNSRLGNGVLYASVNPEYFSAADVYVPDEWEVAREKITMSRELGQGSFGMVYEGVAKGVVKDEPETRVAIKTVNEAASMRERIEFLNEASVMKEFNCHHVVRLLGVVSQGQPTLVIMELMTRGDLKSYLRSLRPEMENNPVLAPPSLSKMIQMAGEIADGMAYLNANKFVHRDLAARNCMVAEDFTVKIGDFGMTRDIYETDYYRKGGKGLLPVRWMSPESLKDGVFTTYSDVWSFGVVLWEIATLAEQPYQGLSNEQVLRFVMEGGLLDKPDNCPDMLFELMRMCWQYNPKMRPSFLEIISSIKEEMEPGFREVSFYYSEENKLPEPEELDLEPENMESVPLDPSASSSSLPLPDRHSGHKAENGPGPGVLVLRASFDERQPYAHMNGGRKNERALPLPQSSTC
Chain of ALK tyrosine kinase receptor (Homo sapiens) (Q9UM73 19-1620 limits assumed): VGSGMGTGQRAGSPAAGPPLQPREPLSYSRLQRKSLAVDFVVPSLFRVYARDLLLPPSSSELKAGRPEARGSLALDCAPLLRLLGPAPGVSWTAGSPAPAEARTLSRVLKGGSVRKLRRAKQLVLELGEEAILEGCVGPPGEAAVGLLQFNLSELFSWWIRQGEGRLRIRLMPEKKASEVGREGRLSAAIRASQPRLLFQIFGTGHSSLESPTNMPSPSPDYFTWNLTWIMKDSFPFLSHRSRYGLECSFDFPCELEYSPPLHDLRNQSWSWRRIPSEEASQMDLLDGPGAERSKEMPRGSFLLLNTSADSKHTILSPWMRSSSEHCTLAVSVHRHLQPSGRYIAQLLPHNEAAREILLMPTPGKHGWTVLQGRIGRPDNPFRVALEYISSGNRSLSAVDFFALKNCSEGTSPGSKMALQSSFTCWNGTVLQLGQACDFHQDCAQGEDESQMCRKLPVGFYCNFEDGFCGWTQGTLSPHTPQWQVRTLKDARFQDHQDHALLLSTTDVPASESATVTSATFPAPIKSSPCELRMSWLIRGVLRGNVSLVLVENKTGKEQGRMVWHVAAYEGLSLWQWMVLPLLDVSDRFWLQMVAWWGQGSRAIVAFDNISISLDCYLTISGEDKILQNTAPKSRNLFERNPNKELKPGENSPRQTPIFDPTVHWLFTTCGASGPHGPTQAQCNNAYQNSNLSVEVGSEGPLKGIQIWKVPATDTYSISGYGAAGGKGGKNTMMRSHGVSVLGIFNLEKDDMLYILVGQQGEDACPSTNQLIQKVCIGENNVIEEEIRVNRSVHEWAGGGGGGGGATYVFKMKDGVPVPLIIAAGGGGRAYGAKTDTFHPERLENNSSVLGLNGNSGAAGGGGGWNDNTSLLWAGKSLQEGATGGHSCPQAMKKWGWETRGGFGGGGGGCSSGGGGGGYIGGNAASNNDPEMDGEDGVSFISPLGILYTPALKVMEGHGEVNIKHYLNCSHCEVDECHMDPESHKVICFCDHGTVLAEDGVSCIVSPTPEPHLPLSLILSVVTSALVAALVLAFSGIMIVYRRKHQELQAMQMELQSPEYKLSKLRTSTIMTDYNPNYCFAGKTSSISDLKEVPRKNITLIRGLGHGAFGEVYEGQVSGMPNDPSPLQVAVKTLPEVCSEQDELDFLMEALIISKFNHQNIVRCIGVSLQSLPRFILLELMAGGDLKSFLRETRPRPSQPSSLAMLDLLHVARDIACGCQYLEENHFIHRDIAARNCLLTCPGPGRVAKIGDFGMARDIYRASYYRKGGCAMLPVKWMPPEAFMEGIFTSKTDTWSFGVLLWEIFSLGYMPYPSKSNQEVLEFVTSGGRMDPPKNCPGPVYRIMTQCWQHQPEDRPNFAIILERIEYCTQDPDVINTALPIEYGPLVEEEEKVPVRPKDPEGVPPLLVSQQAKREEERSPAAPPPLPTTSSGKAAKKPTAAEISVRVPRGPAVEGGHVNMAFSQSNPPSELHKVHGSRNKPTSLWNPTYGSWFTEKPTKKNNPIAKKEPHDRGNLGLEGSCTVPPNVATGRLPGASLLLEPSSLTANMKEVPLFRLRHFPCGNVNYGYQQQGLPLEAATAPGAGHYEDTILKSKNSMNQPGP

CNC(=O)c1ccccc1Nc1cc(Nc2ccc(N3CCOCC3)cc2OC)ncc1C(F)(F)F [VS-4718]
Activity [1]: Active
Activity [2]: inactive
half-life [3]: 32 min
inhibition [4]: Active
inhibition [5]: inactive
Activity [6]: inactive
Activity [7]: 65.7%
Activity [8]: 23.8%
Activity [9]: 10.5%
Activity [10]: 84.4%
Activity [11]: 10%
Activity [12]: inactive
inhibition [13]: Active
Activity [14]: >50%
Activity [15]: Active
fold change (FC) [16]: 2
Activity [17]: Active
Activity [18]: Active
residual activity [19]: 127%
residual activity [20]: 78%
residual activity [21]: 67%
residual activity [22]: 105%
residual activity [23]: 96%
residual activity [24]: 118%
residual activity [25]: 99%
residual activity [26]: 145%
residual activity [27]: 97%
residual activity [28]: 101%
residual activity [29]: 116%
residual activity [30]: 110%
residual activity [31]: 123%
residual activity [32]: 70%
residual activity [33]: 69%
